# Data reported in ChEMBL document CHEMBL1141477, “Synthesis and anticancer activity studies of cyclopamine derivatives” (Bioorg Med Chem Lett, 2008).
# Active and inactive are the calls of the source. The calls are words filed in the database; no cut-off is given here.
# Test system: A549
# Test: Anticancer activity against human A549 cells by MTS assay
# Format: functional, cell-based
row,SMILES,IC50
1,CC(=O)OC[C@H]1O[C@@H](O[C@H]2[C@H](OC(C)=O)[C@@H](OC(C)=O)[C@H](n3cc(CN4C[C@@H](C)C[C@H]5O[C@]6(CC[C@@H]7C(=C6C)C[C@H]6[C@H]7CC=C7C[C@@H](O)CC[C@@]76C)[C@H](C)[C@@H]54)nn3)O[C@@H]2COC(C)=O)[C@H](OC(C)=O)[C@@H](OC(C)=O)[C@H]1OC(C)=O,183 µM
2,CC1=C2C[C@H]3[C@@H](CC=C4C[C@@H](O)CC[C@@]43C)[C@@H]2CC[C@]12O[C@@H]1C[C@H](C)CN[C@H]1[C@H]2C [CYCLOPAMINE],49 µM
3,CC(=O)OC[C@H]1O[C@@H](n2cc(CN3C[C@@H](C)C[C@H]4O[C@]5(CC[C@@H]6C(=C5C)C[C@H]5[C@H]6CC=C6C[C@@H](O)CC[C@@]65C)[C@H](C)[C@@H]43)nn2)[C@H](OC(C)=O)[C@@H](OC(C)=O)[C@@H]1O[C@@H]1O[C@H](COC(C)=O)[C@@H](O[C@@H]2O[C@H](COC(C)=O)[C@@H](OC(C)=O)[C@H](OC(C)=O)[C@H]2OC(C)=O)[C@H](OC(C)=O)[C@H]1OC(C)=O,96 µM
4,CC(=O)OC[C@H]1O[C@@H](n2cc(CN3C[C@@H](C)C[C@H]4O[C@]5(CC[C@@H]6C(=C5C)C[C@H]5[C@H]6CC=C6C[C@@H](O)CC[C@@]65C)[C@H](C)[C@@H]43)nn2)[C@H](OC(C)=O)[C@@H](OC(C)=O)[C@@H]1OC(C)=O,144 µM
5,CC(=O)O[C@@H]1[C@@H](OC(C)=O)[C@@H](OC(C)=O)C(n2cc(CN3C[C@@H](C)C[C@H]4O[C@]5(CC[C@@H]6C(=C5C)C[C@H]5[C@H]6CC=C6C[C@@H](O)CC[C@@]65C)[C@H](C)[C@@H]43)nn2)O[C@H]1C (stereo partly specified),33 µM

# Test system: A549
# Test: Anticancer activity against human A549 cells at 200 uM by MTS assay
# Format: functional, cell-based
row,SMILES,Activity
1,CC(=O)O[C@@H]1[C@@H](OC(C)=O)[C@@H](n2cc(CN3C[C@@H](C)C[C@H]4O[C@]5(CC[C@@H]6C(=C5C)C[C@H]5[C@H]6CC=C6C[C@@H](O)CC[C@@]65C)[C@H](C)[C@@H]43)nn2)OC[C@H]1OC(C)=O,inactive
2,CC(=O)OC[C@H]1OC(n2cc(CN3C[C@@H](C)C[C@H]4O[C@]5(CC[C@@H]6C(=C5C)C[C@H]5[C@H]6CC=C6C[C@@H](O)CC[C@@]65C)[C@H](C)[C@@H]43)nn2)[C@@H](OC(C)=O)[C@@H](OC(C)=O)[C@@H]1OC(C)=O (stereo partly specified),inactive
3,CC(=O)OC[C@H]1O[C@@H](n2cc(CN3C[C@@H](C)C[C@H]4O[C@]5(CC[C@@H]6C(=C5C)C[C@H]5[C@H]6CC=C6C[C@@H](O)CC[C@@]65C)[C@H](C)[C@@H]43)nn2)[C@H](OC(C)=O)[C@@H](OC(C)=O)[C@H]1OC(C)=O,inactive
4,CC(=O)N[C@@H]1[C@@H](OC(C)=O)[C@H](OC(C)=O)[C@@H](COC(C)=O)O[C@H]1n1cc(CN2C[C@@H](C)C[C@H]3O[C@]4(CC[C@@H]5C(=C4C)C[C@H]4[C@H]5CC=C5C[C@@H](O)CC[C@@]54C)[C@H](C)[C@@H]32)nn1,inactive
5,CC(=O)OC[C@H]1O[C@@H](n2cc(CN3C[C@@H](C)C[C@H]4O[C@]5(CC[C@@H]6C(=C5C)C[C@H]5[C@H]6CC=C6C[C@@H](O)CC[C@@]65C)[C@H](C)[C@@H]43)nn2)[C@H](OC(C)=O)[C@@H](OC(C)=O)[C@@H]1O[C@@H]1O[C@H](COC(C)=O)[C@@H](OC(C)=O)[C@H](OC(C)=O)[C@H]1OC(C)=O,inactive
6,CC(=O)N[C@@H]1[C@@H](OC(C)=O)[C@@H](OC(C)=O)[C@@H](COC(C)=O)O[C@H]1n1cc(CN2C[C@@H](C)C[C@H]3O[C@]4(CC[C@@H]5C(=C4C)C[C@H]4[C@H]5CC=C5C[C@@H](O)CC[C@@]54C)[C@H](C)[C@@H]32)nn1,inactive
